Measurements published in ChEMBL document CHEMBL3885861, “Open TG-GATES”.

Organism: Rattus norvegicus
Assay: Open TG-GATES - Regimen: Daily Repeat
Assay type: toxicity, organism-based, Sprague-Dawley
Set-up: regimen Daily Repeat, gender Male, age 6 weeks
Conditions: in vivo, iv, 1 mg/kg, route intravenous injection, dose level High; for KIDNEY_L / KIDNEY_R / KIDNEY_TOTAL: tissue Kidney; for LIVER: tissue Liver
[1] = 72 h, tissue Plasma, time 3 day
[2] = […], tissue Plasma, time 14 day
[3] = […], tissue Plasma, time 28 day

Which MCV (72 h, tissue Blood, time 3 day) does the source give for CISPLATIN here?
Its MCV is 61.4 fL.

What about the Mono (72 h, tissue Blood, time 3 day) of the same sequence?
The Mono was 2.2%.

What about the Neu (72 h, tissue Blood, time 3 day) of the same sequence?
The Neu was 9%.

What about the PT (72 h, tissue Blood, time 3 day) of the same sequence?
The PT was 15.7 s.

And the Plat (72 h, tissue Blood, time 3 day)?
The Plat was 137 x10_4/uL.

And the RBC (72 h, tissue Blood, time 3 day)?
The RBC was 667 x10_4/ul.

And the Ret (72 h, tissue Blood, time 3 day)?
Its Ret is 2.5%.

And the WBC (72 h, tissue Blood, time 3 day)?
The WBC was 69.2 x10_2/uL.

And the KIDNEY_L (72 h, time 3 day)?
Its KIDNEY_L is 0.9 g.

And the KIDNEY_R (72 h, time 3 day)?
The KIDNEY_R was 1 g.

And the KIDNEY_TOTAL (72 h, time 3 day)?
The KIDNEY_TOTAL was 1.9 g.

What about the LIVER (72 h, time 3 day) of the same sequence?
Its LIVER is 8.7 g.

What about the ALP [1] of the same sequence?
The ALP was 1528.2 IU/L.

And the AST [1]?
The AST was 75.8 IU/L.

And the CRE [1]?
The CRE was 0.2 mg/dL.

And the Ca [1]?
The Ca was 11 mg/dL.

What about the DBIL [1] of the same sequence?
The DBIL was 0.002 mg/dL.

What about the GLC [1] of the same sequence?
The GLC was 180.8 mg/dL.

What about the IP [1] of the same sequence?
The IP was 7.3 mg/dL.

And the K [1]?
Its K is 4.3 meq/L.

And the LDH [1]?
Its LDH is 270.4 IU/L.

What about the PL [1] of the same sequence?
The PL was 132.6 mg/dL.

What about the RALB [1] of the same sequence?
The RALB was 3.1 g/dL.

What about the TBIL [1] of the same sequence?
The TBIL was 0.026 mg/dL.

And the TG [1]?
The TG was 54.8 mg/dL.

And the TP [1]?
The TP was 5.6 g/dL.

What about the gamma-GTP [1] of the same sequence?
Its gamma-GTP is 1.4 IU/L.

And the TERMINAL_BW ([…], time 7 day)?
The TERMINAL_BW was 219.4 g.

And the TERMINAL_BW ([…], time 14 day)?
The TERMINAL_BW was 226 g.

What about the TERMINAL_BW ([…], time 28 day) of the same sequence?
Its TERMINAL_BW is 172 g.

What about the APTT ([…], tissue Blood, time 7 day) of the same sequence?
The APTT was 27.5 s.

And the Bas ([…], tissue Blood, time 7 day)?
Its Bas is 0%.

And the Eos ([…], tissue Blood, time 7 day)?
The Eos was 0.8%.

What about the Fbg ([…], tissue Blood, time 7 day) of the same sequence?
The Fbg was 299.8 mg/dL.

What about the Hb ([…], tissue Blood, time 7 day) of the same sequence?
Its Hb is 14.3 g/dL.

What about the Ht ([…], tissue Blood, time 7 day) of the same sequence?
The Ht was 42.4%.

And the Lym ([…], tissue Blood, time 7 day)?
The Lym was 82.8%.

What about the MCHC ([…], tissue Blood, time 7 day) of the same sequence?
The MCHC was 33.6%.

And the MCV ([…], tissue Blood, time 7 day)?
Its MCV is 59.8 fL.

What about the Mono ([…], tissue Blood, time 7 day) of the same sequence?
Its Mono is 3.6%.

What about the Neu ([…], tissue Blood, time 7 day) of the same sequence?
The Neu was 11.4%.

What about the PT ([…], tissue Blood, time 7 day) of the same sequence?
Its PT is 16 s.

And the Plat ([…], tissue Blood, time 7 day)?
Its Plat is 136.4 x10_4/uL.

And the RBC ([…], tissue Blood, time 7 day)?
The RBC was 708.8 x10_4/ul.

What about the Ret ([…], tissue Blood, time 7 day) of the same sequence?
Its Ret is 1%.

What about the WBC ([…], tissue Blood, time 7 day) of the same sequence?
The WBC was 54.2 x10_2/uL.

What about the APTT ([…], tissue Blood, time 14 day) of the same sequence?
Its APTT is 26.8 s.

What about the Bas ([…], tissue Blood, time 14 day) of the same sequence?
Its Bas is 0%.

And the Eos ([…], tissue Blood, time 14 day)?
Its Eos is 0.4%.

What about the Fbg ([…], tissue Blood, time 14 day) of the same sequence?
Its Fbg is 276.4 mg/dL.

And the Hb ([…], tissue Blood, time 14 day)?
The Hb was 14.9 g/dL.

What about the Ht ([…], tissue Blood, time 14 day) of the same sequence?
The Ht was 43.4%.

What about the Lym ([…], tissue Blood, time 14 day) of the same sequence?
The Lym was 80.8%.

And the MCHC ([…], tissue Blood, time 14 day)?
The MCHC was 34.3%.

And the MCV ([…], tissue Blood, time 14 day)?
The MCV was 58.8 fL.

And the Mono ([…], tissue Blood, time 14 day)?
Its Mono is 4%.

What about the Neu ([…], tissue Blood, time 14 day) of the same sequence?
The Neu was 13.4%.

And the PT ([…], tissue Blood, time 14 day)?
Its PT is 15.3 s.

And the Plat ([…], tissue Blood, time 14 day)?
Its Plat is 68.4 x10_4/uL.

What about the RBC ([…], tissue Blood, time 14 day) of the same sequence?
Its RBC is 739 x10_4/ul.

What about the Ret ([…], tissue Blood, time 14 day) of the same sequence?
The Ret was 0.4%.

What about the WBC ([…], tissue Blood, time 14 day) of the same sequence?
The WBC was 50.8 x10_2/uL.

What about the APTT ([…], tissue Blood, time 28 day) of the same sequence?
Its APTT is 17.9 s.

What about the Bas ([…], tissue Blood, time 28 day) of the same sequence?
Its Bas is 0%.

What about the Eos ([…], tissue Blood, time 28 day) of the same sequence?
The Eos was 0%.

And the Fbg ([…], tissue Blood, time 28 day)?
Its Fbg is 270 mg/dL.

What about the Hb ([…], tissue Blood, time 28 day) of the same sequence?
The Hb was 12.1 g/dL.

What about the Ht ([…], tissue Blood, time 28 day) of the same sequence?
The Ht was 33%.

What about the Lym ([…], tissue Blood, time 28 day) of the same sequence?
The Lym was 77%.

And the MCH ([…], tissue Blood, time 28 day)?
The MCH was 18.5 pg.

And the MCHC ([…], tissue Blood, time 28 day)?
Its MCHC is 36.7%.

What about the MCV ([…], tissue Blood, time 28 day) of the same sequence?
The MCV was 50.5 fL.

What about the Mono ([…], tissue Blood, time 28 day) of the same sequence?
The Mono was 3%.

What about the Neu ([…], tissue Blood, time 28 day) of the same sequence?
The Neu was 20%.

And the PT ([…], tissue Blood, time 28 day)?
Its PT is 16.9 s.

What about the Plat ([…], tissue Blood, time 28 day) of the same sequence?
The Plat was 3.1 x10_4/uL.

What about the RBC ([…], tissue Blood, time 28 day) of the same sequence?
The RBC was 653 x10_4/ul.

And the Ret ([…], tissue Blood, time 28 day)?
Its Ret is 0.1%.

And the WBC ([…], tissue Blood, time 28 day)?
The WBC was 32.4 x10_2/uL.

And the KIDNEY_L ([…], time 7 day)?
The KIDNEY_L was 1 g.

What about the KIDNEY_R ([…], time 7 day) of the same sequence?
The KIDNEY_R was 1 g.

And the KIDNEY_TOTAL ([…], time 7 day)?
Its KIDNEY_TOTAL is 2 g.

What about the KIDNEY_L ([…], time 14 day) of the same sequence?
The KIDNEY_L was 1.3 g.

What about the KIDNEY_R ([…], time 14 day) of the same sequence?
Its KIDNEY_R is 1.3 g.

And the KIDNEY_TOTAL ([…], time 14 day)?
Its KIDNEY_TOTAL is 2.6 g.

What about the KIDNEY_L ([…], time 28 day) of the same sequence?
The KIDNEY_L was 2.8 g.

And the KIDNEY_R ([…], time 28 day)?
The KIDNEY_R was 2.8 g.

And the KIDNEY_TOTAL ([…], time 28 day)?
The KIDNEY_TOTAL was 5.6 g.

And the LIVER ([…], time 7 day)?
Its LIVER is 10 g.

What about the LIVER ([…], time 14 day) of the same sequence?
Its LIVER is 8.8 g.

And the LIVER ([…], time 28 day)?
The LIVER was 6.8 g.

What about the ALP ([…], tissue Plasma, time 7 day) of the same sequence?
The ALP was 1309.4 IU/L.

What about the ALT ([…], tissue Plasma, time 7 day) of the same sequence?
The ALT was 31.2 IU/L.

What about the AST ([…], tissue Plasma, time 7 day) of the same sequence?
Its AST is 79 IU/L.

And the BUN ([…], tissue Plasma, time 7 day)?
The BUN was 18.4 mg/dL.

What about the CRE ([…], tissue Plasma, time 7 day) of the same sequence?
The CRE was 0.2 mg/dL.

What about the DBIL ([…], tissue Plasma, time 7 day) of the same sequence?
Its DBIL is 0.002 mg/dL.

And the GLC ([…], tissue Plasma, time 7 day)?
The GLC was 170.8 mg/dL.

And the IP ([…], tissue Plasma, time 7 day)?
Its IP is 5.9 mg/dL.

And the K ([…], tissue Plasma, time 7 day)?
Its K is 4.1 meq/L.

And the LDH ([…], tissue Plasma, time 7 day)?
Its LDH is 247.4 IU/L.

What about the PL ([…], tissue Plasma, time 7 day) of the same sequence?
The PL was 118.8 mg/dL.

And the RALB ([…], tissue Plasma, time 7 day)?
The RALB was 3.2 g/dL.

And the TBIL ([…], tissue Plasma, time 7 day)?
Its TBIL is 0.02 mg/dL.

What about the TC ([…], tissue Plasma, time 7 day) of the same sequence?
The TC was 63.4 mg/dL.

And the TG ([…], tissue Plasma, time 7 day)?
The TG was 64.2 mg/dL.

And the TP ([…], tissue Plasma, time 7 day)?
Its TP is 5.8 g/dL.

What about the gamma-GTP ([…], tissue Plasma, time 7 day) of the same sequence?
The gamma-GTP was 1.6 IU/L.

And the ALP [2]?
Its ALP is 720.4 IU/L.

What about the ALT [2] of the same sequence?
The ALT was 37.6 IU/L.

What about the AST [2] of the same sequence?
The AST was 102.8 IU/L.

And the BUN [2]?
The BUN was 42.2 mg/dL.

What about the CRE [2] of the same sequence?
The CRE was 0.5 mg/dL.

What about the DBIL [2] of the same sequence?
The DBIL was 0.002 mg/dL.

And the GLC [2]?
The GLC was 165.8 mg/dL.

What about the IP [2] of the same sequence?
The IP was 5.5 mg/dL.

What about the K [2] of the same sequence?
Its K is 4.2 meq/L.

What about the LDH [2] of the same sequence?
Its LDH is 248.4 IU/L.

And the PL [2]?
The PL was 134.8 mg/dL.

And the RALB [2]?
Its RALB is 3.1 g/dL.

And the TBIL [2]?
The TBIL was 0.006 mg/dL.

And the TC [2]?
Its TC is 86 mg/dL.

What about the TG [2] of the same sequence?
The TG was 43 mg/dL.

What about the TP [2] of the same sequence?
The TP was 5.8 g/dL.

What about the gamma-GTP [2] of the same sequence?
Its gamma-GTP is 3.8 IU/L.

What about the ALP [3] of the same sequence?
Its ALP is 311 IU/L.

And the ALT [3]?
The ALT was 47 IU/L.

And the AST [3]?
The AST was 125 IU/L.

What about the BUN [3] of the same sequence?
Its BUN is 332 mg/dL.

And the CRE [3]?
The CRE was 3.6 mg/dL.

And the Ca [3]?
Its Ca is 9.1 mg/dL.

What about the Cl [3] of the same sequence?
The Cl was 93 meq/L.

And the DBIL [3]?
The DBIL was 0.01 mg/dL.

And the GLC [3]?
Its GLC is 210 mg/dL.

And the IP [3]?
The IP was 11.7 mg/dL.

What about the K [3] of the same sequence?
The K was 5.4 meq/L.

What about the LDH [3] of the same sequence?
The LDH was 2660 IU/L.

What about the Na [3] of the same sequence?
Its Na is 129 meq/L.

And the PL [3]?
The PL was 140 mg/dL.

What about the RALB [3] of the same sequence?
The RALB was 2.3 g/dL.

What about the TBIL [3] of the same sequence?
The TBIL was 0 mg/dL.

And the TC [3]?
The TC was 77 mg/dL.

And the TG [3]?
The TG was 91 mg/dL.

What about the TP [3] of the same sequence?
Its TP is 4.5 g/dL.

What about the gamma-GTP [3] of the same sequence?
Its gamma-GTP is 2 IU/L.
